Results reported in patent US8906925B2, “Pyrido[4,3-B]indoles containing rigid moieties” (Medivation Technologies, Inc., priority 2008, dated 2014).
Where two headings read alike, the source gives them in different places.

Experiments:
[1] = target: T1, human recombinant histamine H2 receptor (Homo sapiens, UniProt P25021); experiment: Histamine H2 radioligand binding ([125I]Aminopotentidine); conditions: read-out: Histamine Binding (1 μM) H2, percent inhibition of specific binding, 1 μM
T1 construct: expressed in transfected cells; host or cells: Chinese hamster ovary (CHO) K1 cells
Outline: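 CHO-K1 cells expressing human recombinant H2 receptor, 50 mM phosphate buffer pH 7.4; compounds incubated with 0.1 nM [125I]aminopotentidine for 120 min at 25 °C. Nonspecific binding defined with 3 μM tiotidine; specifically bound radioligand counted after filtration and washing.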

[2] = target: human dopamine D2L receptor (Homo sapiens, UniProt P14416); experiment: Dopamine D2L radioligand binding ([3H]Spiperone); conditions: compound at 1 μM
Excerpt: Non-specific binding was estimated in the presence of […] Haloperidol. Receptor proteins were filtered and washed, the filters were then counted to determine [^3H]Spiperone specifically bound. […] Biochemical assay results are presented as the percent inhibition of specific binding in Table 9.

[3] = target: T2, human recombinant serotonin (5-Hydroxytryptamine) 5-HT2A receptor (Homo sapiens, UniProt P28223); experiment: Serotonin 5-HT2A radioligand binding ([3H]Ketanserin); conditions: for inhibition at 0.1 µM: read-out: Inhibition of ligand binding, Serotonin 5-HT2A (percent inhibition of specific binding), compound at 0.1 μM; for inhibition at 1 µM: read-out: Inhibition of ligand binding, Serotonin 5-HT2A (percent inhibition of specific binding), compound at 1 μM
T2 construct: expressed in transfected cells; host or cells: Chinese hamster ovary (CHO-K1) cells
Protocol: Compounds of the invention were incubated with 0.5 nM [^3H]Ketanserin for 60 min. at 25° C. Non-specific binding was estimated in the presence of 1 μM Mianserin. Receptor proteins were filtered and washed, the filters were then counted to determine [^3H]Ketanserin specifically bound.

[4] = target: T3, human recombinant serotonin (5-Hydroxytryptamine) 5-HT2C receptor (Homo sapiens, UniProt P28335); experiment: Serotonin 5-HT2C radioligand binding ([3H]Mesulergine); conditions: for inhibition at 0.1 µM: compound at 0.1 μM; for inhibition at 0.1 µM / inhibition at 1 µM: read-out: Inhibition of ligand binding, Serotonin 5-HT2C (percent inhibition of specific binding)
T3 construct: expressed in transfected cells; host or cells: Chinese hamster ovary (CHO-K1) cells
T3 sequence (P28335 33-458): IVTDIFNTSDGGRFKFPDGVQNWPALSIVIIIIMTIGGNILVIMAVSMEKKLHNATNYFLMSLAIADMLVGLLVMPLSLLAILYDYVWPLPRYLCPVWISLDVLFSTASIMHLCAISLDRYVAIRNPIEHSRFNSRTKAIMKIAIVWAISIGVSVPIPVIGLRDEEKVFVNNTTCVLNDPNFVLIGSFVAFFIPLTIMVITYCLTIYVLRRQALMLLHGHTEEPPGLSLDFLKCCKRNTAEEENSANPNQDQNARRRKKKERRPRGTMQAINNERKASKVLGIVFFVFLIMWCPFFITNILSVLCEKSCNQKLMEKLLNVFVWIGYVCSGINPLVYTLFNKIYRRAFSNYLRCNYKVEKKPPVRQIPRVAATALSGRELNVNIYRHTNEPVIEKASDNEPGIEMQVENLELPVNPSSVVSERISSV
Outline: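 Compounds tested at 1 μM or lower (1% DMSO vehicle) for displacement of 1 nM [3H]Mesulergine over 60 min at 25° C. Specific binding determined by filtration counting, with 1 μM Mianserin defining non-specific binding; values are percent inhibition.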

[5] = target: T4, human recombinant serotonin (5-Hydroxytryptamine) 5-HT6 receptor (Homo sapiens, UniProt P50406); experiment: Serotonin 5-HT6 radioligand binding ([3H]LSD); conditions: read-out: Inhibition of ligand binding, Serotonin 5-HT6 (percent inhibition of specific binding); for inhibition at 0.1 µM: compound at 0.1 μM; for inhibition at 1 µM: compound at 1 μM
T4 construct: expressed in transfected cells; host or cells: human HeLa cells
Protocol: Compounds of the invention were incubated with 1.5 nM [3H]Lysergic acid diethylamide (LSD) for 120 min. at 37° C. […] Receptor proteins were filtered and washed, the filters were then counted to determine [3H]LSD specifically bound. Compounds were screened at 1 μM or lower, using 1% DMSO as vehicle. Biochemical assay results are presented as the percent inhibition of specific binding in Table 10.

[6] = target: human recombinant serotonin (5-Hydroxytryptamine) 5-HT7 receptor (Homo sapiens, UniProt P34969); experiment: Serotonin 5-HT7 radioligand binding ([3H]LSD); conditions: for inhibition at 0.1 µM: compound at 0.1 μM; for inhibition at 0.1 µM / inhibition at 1 µM: read-out: Inhibition of ligand binding, Serotonin 5-HT7 (percent inhibition of specific binding)
Excerpt: Receptor proteins were filtered and washed, the filters were then counted to determine [^3H]LSD specifically bound.

[7] = target: T5, human recombinant serotonin 5-HT1B receptor (Homo sapiens, UniProt P28222); experiment: 5-HT1B radioligand binding competition assay ([3H]5-CT, CHO-K1 membranes); conditions: 5 μM, in duplicate, average
T5 construct: expressed in transfected cells; host or cells: CHO-K1 cell line, membrane extracts
Protocol: To determine the binding activity at the human recombinant serotonin 5-HT1B receptor of compounds of the invention, CHO-K1 cell line expressing the human 5-HT1B recombinant receptor was amplified to prepare membranes used for the radioligand binding assay throughout the study. Radioligand binding competition on 5-HT1B was performed by adding successively in the wells of a 96 well plate (Master Block, Greiner, 786201). […] The plate was incubated 60 min at 25° C. in a water bath and then filtered over GF/B filters (Perkin Elmer, 6005177, presoaked in 0.5% PE1 for 2 h at room temperature) with a Filtration unit (Perkin Elmer). The filters were washed 3× with 0.5 mL of ice-cold washing buffer (50 mM Tris pH 7.4). 50 μL Microscint 20 (Packard) was added and the plate was incubated 15 min on an orbital shaker and then counted with a TopCount™ for 1 min/well.
The reference value thus obtained for the test was compared to a historical value obtained from the same receptor and used to validate the experimental session. […] For replicate determinations, the maximum variability tolerated in the test was of +/−20% around the average of the replicates.
Compounds were tested for binding activity in the radioligand binding competition assay on human 5-HT1B receptor, at one concentration […], in duplicate. Dose-response data from test compounds were analyzed with XLfit (IDBS) software using nonlinear regression applied to a sigmoidal dose-response model.
Dose-response data was analyzed with XLfit (IDBS) software using non-linear regression applied to a sigmoidal dose-response model.

histamine receptor H1 = histamine receptor H1 (Homo sapiens, UniProt P35367); experiment: Histamine H1 radioligand binding ([3H]Pyrilamine); conditions: read-out: Histamine Binding (1 μM) H1, percent inhibition of specific binding, 1 μM
Outline: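 Values are percent inhibition of specific [3H]pyrilamine (1.2 nM) binding with compounds at ≤1 μM (1% DMSO vehicle); 180 min incubation at 25 °C, pH 7.4 Tris buffer, on CHO-expressed human H1 receptor; 1 μM pyrilamine defined nonspecific binding, bound ligand counted after filtration.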

[8] = percent inhibition of specific binding, read-out: Inhibition of ligand binding, Dopamine D2L
[9] = […] [3H]Spiperone, read-out: Inhibition of ligand binding, Dopamine D2L (percent inhibition of specific binding)

human recombinant serotonin (5-Hydroxytryptamine) 5-HT7 receptor, sequence (P34969 whole entry): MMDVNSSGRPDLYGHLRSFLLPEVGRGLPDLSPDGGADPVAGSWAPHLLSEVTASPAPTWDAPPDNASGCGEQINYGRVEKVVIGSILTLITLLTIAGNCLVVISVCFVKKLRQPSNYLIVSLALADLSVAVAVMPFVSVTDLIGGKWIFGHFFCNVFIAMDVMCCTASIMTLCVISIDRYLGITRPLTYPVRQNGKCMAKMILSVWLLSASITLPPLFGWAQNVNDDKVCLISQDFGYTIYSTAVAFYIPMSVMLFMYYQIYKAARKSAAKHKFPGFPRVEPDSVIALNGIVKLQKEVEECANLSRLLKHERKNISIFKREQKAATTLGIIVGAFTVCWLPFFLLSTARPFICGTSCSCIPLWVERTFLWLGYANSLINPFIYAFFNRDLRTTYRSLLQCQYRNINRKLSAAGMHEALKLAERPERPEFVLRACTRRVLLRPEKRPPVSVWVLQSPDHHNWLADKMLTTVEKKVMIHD
T5 sequence (P28222 whole entry): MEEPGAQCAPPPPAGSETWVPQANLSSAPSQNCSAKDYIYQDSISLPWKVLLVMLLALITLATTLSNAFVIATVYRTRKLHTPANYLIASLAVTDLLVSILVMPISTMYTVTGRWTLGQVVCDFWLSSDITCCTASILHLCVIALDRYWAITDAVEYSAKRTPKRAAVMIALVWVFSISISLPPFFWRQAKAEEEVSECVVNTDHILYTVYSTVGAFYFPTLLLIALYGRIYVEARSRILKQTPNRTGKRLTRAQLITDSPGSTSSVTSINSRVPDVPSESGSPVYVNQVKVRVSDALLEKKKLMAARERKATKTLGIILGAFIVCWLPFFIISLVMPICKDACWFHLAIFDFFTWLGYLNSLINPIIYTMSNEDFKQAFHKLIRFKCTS
T4 sequence (P50406 whole entry): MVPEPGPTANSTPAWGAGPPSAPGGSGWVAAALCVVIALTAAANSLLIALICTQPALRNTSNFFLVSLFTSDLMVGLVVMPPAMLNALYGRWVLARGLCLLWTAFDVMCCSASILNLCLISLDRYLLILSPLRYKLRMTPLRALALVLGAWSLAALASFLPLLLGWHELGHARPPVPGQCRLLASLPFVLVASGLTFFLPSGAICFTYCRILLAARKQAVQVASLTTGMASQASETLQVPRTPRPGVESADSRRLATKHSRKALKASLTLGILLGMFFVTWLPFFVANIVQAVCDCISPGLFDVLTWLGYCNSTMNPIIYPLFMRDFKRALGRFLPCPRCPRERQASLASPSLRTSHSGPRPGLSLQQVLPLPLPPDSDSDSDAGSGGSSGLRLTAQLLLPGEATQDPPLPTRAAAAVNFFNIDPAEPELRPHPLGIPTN
histamine receptor H1, sequence (P35367 whole entry): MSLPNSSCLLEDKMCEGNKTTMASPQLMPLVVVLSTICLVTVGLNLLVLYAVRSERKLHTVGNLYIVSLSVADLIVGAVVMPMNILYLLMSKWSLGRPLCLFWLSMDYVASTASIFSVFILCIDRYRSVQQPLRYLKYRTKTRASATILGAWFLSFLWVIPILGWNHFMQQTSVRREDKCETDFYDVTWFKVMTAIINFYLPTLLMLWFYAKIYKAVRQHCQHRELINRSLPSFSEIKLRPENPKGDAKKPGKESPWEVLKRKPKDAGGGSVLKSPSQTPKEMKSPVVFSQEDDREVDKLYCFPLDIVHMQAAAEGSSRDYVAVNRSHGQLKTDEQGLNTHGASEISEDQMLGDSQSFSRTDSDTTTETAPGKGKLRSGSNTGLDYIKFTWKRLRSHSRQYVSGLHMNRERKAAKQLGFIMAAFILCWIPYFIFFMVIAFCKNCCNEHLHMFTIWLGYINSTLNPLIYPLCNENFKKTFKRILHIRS
T1 sequence (P25021 whole entry): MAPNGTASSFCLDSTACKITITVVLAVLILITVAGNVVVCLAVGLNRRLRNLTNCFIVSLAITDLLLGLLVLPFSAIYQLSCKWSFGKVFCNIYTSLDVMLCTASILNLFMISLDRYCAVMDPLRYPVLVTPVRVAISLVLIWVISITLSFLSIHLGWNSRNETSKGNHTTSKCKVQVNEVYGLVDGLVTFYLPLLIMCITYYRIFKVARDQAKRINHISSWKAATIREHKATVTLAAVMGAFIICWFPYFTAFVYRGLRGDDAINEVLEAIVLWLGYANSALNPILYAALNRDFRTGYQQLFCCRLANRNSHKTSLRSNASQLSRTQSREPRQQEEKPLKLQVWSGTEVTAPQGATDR
human dopamine D2L receptor, sequence (P14416 whole entry): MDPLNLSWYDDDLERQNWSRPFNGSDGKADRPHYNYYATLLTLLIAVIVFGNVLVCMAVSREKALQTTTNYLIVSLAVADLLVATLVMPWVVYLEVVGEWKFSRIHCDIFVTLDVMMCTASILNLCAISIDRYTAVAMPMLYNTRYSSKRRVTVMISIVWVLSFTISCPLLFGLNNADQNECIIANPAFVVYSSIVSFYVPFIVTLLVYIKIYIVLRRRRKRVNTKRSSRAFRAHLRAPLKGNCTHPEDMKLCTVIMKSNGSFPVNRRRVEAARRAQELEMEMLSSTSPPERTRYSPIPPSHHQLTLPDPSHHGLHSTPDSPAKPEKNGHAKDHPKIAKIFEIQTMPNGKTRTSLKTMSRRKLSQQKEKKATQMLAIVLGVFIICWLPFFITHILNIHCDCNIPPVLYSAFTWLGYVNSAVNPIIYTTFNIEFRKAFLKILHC
T2 sequence (P28223 whole entry): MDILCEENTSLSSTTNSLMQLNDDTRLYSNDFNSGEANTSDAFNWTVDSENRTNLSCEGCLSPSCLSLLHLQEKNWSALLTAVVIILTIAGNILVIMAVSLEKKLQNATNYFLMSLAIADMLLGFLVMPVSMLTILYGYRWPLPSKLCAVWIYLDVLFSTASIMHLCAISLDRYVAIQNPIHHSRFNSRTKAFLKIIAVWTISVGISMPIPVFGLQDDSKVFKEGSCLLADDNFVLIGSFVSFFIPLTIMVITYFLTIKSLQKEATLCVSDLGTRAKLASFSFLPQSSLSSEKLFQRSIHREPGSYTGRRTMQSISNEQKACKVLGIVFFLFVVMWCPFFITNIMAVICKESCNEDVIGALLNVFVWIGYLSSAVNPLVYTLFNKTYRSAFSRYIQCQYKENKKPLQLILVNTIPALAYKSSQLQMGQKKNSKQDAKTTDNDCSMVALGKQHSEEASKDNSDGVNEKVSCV

C/C(=C\n1c2c(c3ccccc31)CN(C)CC2)c1ccncc1 [Compound 217, (E)-2-methyl-5-(2-(pyridin-4-yl)prop-1-enyl)-2,3,4,5-tetrahydro-1H-pyrido[4,3-b]indole]
inhibition at 1 µM [1]: 50% | Inhibition of ligand binding, Dopamine D2L ([2]; percent inhibition of specific binding, 1 µM): 88% | inhibition at 1 µM [2, 8]: 86% | inhibition at 0.1 µM [3]: 96% | inhibition at 1 µM [3]: 98% | inhibition at 0.1 µM [4]: 62% | Inhibition of ligand binding, Serotonin 5-HT2C (percent inhibition of specific binding) ([4]; compound at 1 μM, 1 µM): 92% | inhibition at 1 µM ([4]; compound at 1 μM): 87% | inhibition at 0.1 µM [5]: 97% | inhibition at 1 µM [5]: 102% | inhibition at 0.1 µM [6]: 58% | Inhibition of ligand binding, Serotonin 5-HT7 (percent inhibition of specific binding) ([6]; compound at 1 μM, 1 µM): 91% | inhibition at 1 µM ([6]; compound at 1 μM): 73% | 5-HT1B (5 μM) % Binding relative to bound radioligand [7]: 10%

C/C(=C\n1c2c(c3cc(C)ccc31)CN(C)C(C)C2)c1ccc(C)nc1 (stereo not shown) [Compound 259, (E)-2,3,8-trimethyl-5-(2-(6-methylpyridin-3-yl)prop-1-enyl)-2,3,4,5-tetrahydro-1H-pyrido[4,3-b]indole]
inhibition at 1 µM (histamine receptor H1): 10% | inhibition at 1 µM [2, 8]: -12% | inhibition at 0.1 µM [3]: 96% | inhibition at 0.1 µM [4]: 92% | inhibition at 0.1 µM [5]: 21% | inhibition at 0.1 µM [6]: 81% | 5-HT1B (5 μM) % Binding relative to bound radioligand [7]: 25%

C/C(=C/n1c2c(c3cc(C)ccc31)CN(C)CC2)c1ccc(F)cc1F [Compound 274, (Z)-5-(2-(2,4-difluorophenyl)prop-1-enyl)-2,8-dimethyl-2,3,4,5-tetrahydro-1H-pyrido[4,3-b]indole]
inhibition at 1 µM (histamine receptor H1): 72% | inhibition at 1 µM [2, 8]: 56% | inhibition at 0.1 µM [3]: 98% | inhibition at 0.1 µM [4]: 99% | inhibition at 0.1 µM [5]: 97% | inhibition at 0.1 µM [6]: 94% | 5-HT1B (5 μM) % Binding relative to bound radioligand [7]: 6%

C=C(Cn1c2c(c3cccc(F)c31)CN(C)CC2)c1ccc(F)cc1 [Compound No. 353, 6-fluoro-5-(2-(4-fluorophenyl)allyl)-2-methyl-2,3,4,5-tetrahydro-1H-pyrido[4,3-b]indole]
inhibition at 1 µM (histamine receptor H1): 100% | inhibition at 1 µM [1]: 93% | inhibition at 1 µM [2, 9]: 92% | inhibition at 1 µM [3]: 98% | inhibition at 1 µM ([4]; compound at 1 μM): 97% | inhibition at 1 µM [5]: 100% | inhibition at 1 µM ([6]; compound at 1 μM): 87%

C=C(Cn1c2c(c3cccc(Cl)c31)CN(C)CC2)c1ccc(F)cc1 [Compound No. 354, 6-chloro-5-(2-(4-fluorophenyl)allyl)-2-methyl-2,3,4,5-tetrahydro-1H-pyrido[4,3-b]indole]
inhibition at 1 µM (histamine receptor H1): 86% | inhibition at 1 µM [1]: 97% | inhibition at 1 µM [2, 9]: 98% | inhibition at 1 µM [3]: 100% | inhibition at 1 µM ([4]; compound at 1 μM): 101% | inhibition at 1 µM [5]: 103% | inhibition at 1 µM ([6]; compound at 1 μM): 75%

C=C(Cn1c2c(c3cc(C)ccc31)CN(C)CC2)c1ccc(O)cc1 [Compound No. 355, 4-(3-(2,8-dimethyl-3,4-dihydro-1H-pyrido[4,3-b]indol-5(2H)-yl)prop-1-en-2-yl)phenol]
inhibition at 1 µM (histamine receptor H1): 116% | inhibition at 1 µM [1]: 93% | inhibition at 1 µM [2, 9]: 81% | inhibition at 1 µM [3]: 92% | inhibition at 1 µM ([4]; compound at 1 μM): 99% | inhibition at 1 µM [5]: 101% | inhibition at 1 µM ([6]; compound at 1 μM): 92%

C=C(Cn1c2c(c3cc(OC)ccc31)CN(C)CC2)c1ccncc1 [Compound No. 356, 8-methoxy-2-methyl-5-(2-(pyridin-4-yl)allyl)-2,3,4,5-tetrahydro-1H-pyrido[4,3-b]indole]
inhibition at 1 µM (histamine receptor H1): 70% | inhibition at 1 µM [1]: 17% | inhibition at 1 µM [2, 9]: 37% | inhibition at 1 µM [3]: 81% | inhibition at 1 µM ([4]; compound at 1 μM): 83% | inhibition at 1 µM [5]: 90% | inhibition at 1 µM ([6]; compound at 1 μM): 60%

C/C=C(\Cn1c2c(c3cc(C)ccc31)CN(C)CC2)c1ccncc1 [Compound No. 359, (Z)-2,8-dimethyl-5-(2-(pyridin-4-yl)but-2-enyl)-2,3,4,5-tetrahydro-1H-pyrido[4,3-b]indole]
inhibition at 1 µM (histamine receptor H1): 38% | inhibition at 1 µM [2, 9]: 27% | 5-HT1B (5 μM) % Binding relative to bound radioligand [7]: 68%

Cc1ccc(C#Cn2c3c(c4cc(Cl)ccc42)CN(C)CC3)cn1 [Compound No. 484, 8-chloro-2-methyl-5-((6-methylpyridin-3-yl)ethynyl)-2,3,4,5-tetrahydro-1H-pyrido[4,3-b]indole]
inhibition at 1 µM (histamine receptor H1): 6% | inhibition at 1 µM [1]: 77% | inhibition at 1 µM [2, 9]: -4% | inhibition at 1 µM [3]: 98% | inhibition at 1 µM ([4]; compound at 1 μM): 95% | inhibition at 1 µM [5]: 34% | inhibition at 1 µM ([6]; compound at 1 μM): 83%

COc1ccc(C#Cn2c3c(c4cc(C)ccc42)CN(C)CC3)cc1F [Compound No. 485, 5-((3-fluoro-4-methoxyphenyl)ethynyl)-2,8-dimethyl-2,3,4,5-tetrahydro-1H-pyrido[4,3-b]indole]
inhibition at 1 µM (histamine receptor H1): -6% | inhibition at 1 µM [1]: 97% | inhibition at 1 µM [2, 9]: 14% | inhibition at 1 µM [3]: 96% | inhibition at 1 µM ([4]; compound at 1 μM): 102% | inhibition at 1 µM [5]: 89% | inhibition at 1 µM ([6]; compound at 1 μM): 77%
